This is an account of results in US20240246967A1, “AXL COMPOUNDS” (ARCUS BIOSCIENCES, INC., priority 2021, published 2024).

The assay concerns the target T1, human MER (Homo sapiens, UniProt Q12866).
T1 construct: purchased Invitrogen
T1 sequence (Q12866 21-999): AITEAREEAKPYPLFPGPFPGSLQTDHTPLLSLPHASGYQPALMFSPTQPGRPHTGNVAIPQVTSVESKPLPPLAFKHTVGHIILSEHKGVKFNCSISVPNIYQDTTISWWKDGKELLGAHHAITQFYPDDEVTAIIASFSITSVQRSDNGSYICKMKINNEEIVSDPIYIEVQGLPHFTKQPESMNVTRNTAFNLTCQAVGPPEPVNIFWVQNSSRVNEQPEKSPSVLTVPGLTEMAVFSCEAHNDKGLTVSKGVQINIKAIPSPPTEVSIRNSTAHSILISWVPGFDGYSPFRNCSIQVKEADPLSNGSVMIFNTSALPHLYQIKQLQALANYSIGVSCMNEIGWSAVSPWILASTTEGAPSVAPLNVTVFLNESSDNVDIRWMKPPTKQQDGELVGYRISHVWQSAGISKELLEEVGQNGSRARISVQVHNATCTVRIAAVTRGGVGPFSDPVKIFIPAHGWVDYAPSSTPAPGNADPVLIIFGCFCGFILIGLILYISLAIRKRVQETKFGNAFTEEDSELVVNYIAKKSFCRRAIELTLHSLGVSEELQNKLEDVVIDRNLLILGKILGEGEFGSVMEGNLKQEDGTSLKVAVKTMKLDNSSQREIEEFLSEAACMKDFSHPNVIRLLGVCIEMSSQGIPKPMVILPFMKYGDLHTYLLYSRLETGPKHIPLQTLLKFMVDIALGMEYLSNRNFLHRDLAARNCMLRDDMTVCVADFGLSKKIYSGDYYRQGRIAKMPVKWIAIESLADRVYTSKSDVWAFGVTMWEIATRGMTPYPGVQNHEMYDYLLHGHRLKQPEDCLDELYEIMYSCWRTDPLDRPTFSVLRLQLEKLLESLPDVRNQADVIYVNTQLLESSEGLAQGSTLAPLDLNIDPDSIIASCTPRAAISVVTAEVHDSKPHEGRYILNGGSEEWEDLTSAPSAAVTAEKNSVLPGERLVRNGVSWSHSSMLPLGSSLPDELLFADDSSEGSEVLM
The experiment in a line: HTRF KinEASE-TK biochemical potency assay, MER. Conditions: 1 nM MER, 700 μM ATP, 800 nM TK Substrate-biotin. Put shortly: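 Enzyme (final 5 nM AXL; 1 nM TYRO3 or MER) plus compound, 1 h RT → add biotinylated TK substrate (800 nM final) and ATP (700 μM final) → 2 h RT → stop into HTRF detection mix → read 665/620 nm. Activity normalised to DMSO and pre-stopped blanks.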
Background: In TR-FRET formats the signal depends on donor and acceptor labels being close together.
One may read the IC50 as the concentration that inhibits the measured activity by half. Read a low IC50 as greater potency. `C[C@@H]1CCCN1C1CCc2ccc(-c3cnc4[nH]nc(-c5ccc(S(C)(=O)=O)cc5)c4c3)cc2CC1` (stereo partly drawn) [Example 38, 5-(7-((R)-2-Methylpyrrolidin-1-yl)-6,7,8,9-tetrahydro-5H-benzo[7]annulen-2-yl)-3-(4-(methylsulfonyl)phenyl)-1H-pyrazolo[3,4-b]pyridine] showed a concentration for half-maximal inhibition (IC50) of 100 to 1000 nM.
Compound `CC(C)(O)c1ccc(-c2n[nH]c3ncc(-c4ccc5c(c4)CCC4(CCCN4)CC5)cc23)cc1Cl` (stereo not drawn) [Example 96, 2-[2-Chloro-4-(5-{5,6,8,9-tetrahydrospiro[benzo[7]annulene-7,2′-pyrrolidin]-3-yl}-1H-pyrazolo[3,4-b]pyridin-3-yl)phenyl]propan-2-ol] had an IC50 above 1000 nM.
With `C[C@@H]1CCCN1C1(C)CCc2ccc(-c3cnc4[nH]nc(-c5ccc(C(=O)N[C@H]6CCOC6)cc5)c4c3)cc2CC1` (stereo partly drawn) [Example 117, 4-(5-{7-Methyl-7-[(2R)-2-methylpyrrolidin-1-yl]-6,7,8,9-tetrahydro-5H-benzo[7]annulen-2-yl}-1H-pyrazolo[3,4-b]pyridin-3-yl)-N-[(3S)-oxolan-3-yl]benzamide], the IC50 is above 1000 nM.
